Data as given in ChEMBL document CHEMBL1128593, “Chemistry and antimicrobial activity of caryoynencins analogs” (1995).
Converted amounts (≈) assume the structure as drawn.

Tests used:
Enterococcus faecalis = assay: Antimicrobial activity of the Compound was tested for minimum inhibitory concentration against Enterococcus faecalis 681; format: functional
Cryptococcus neoformans = assay: Antimicrobial activity of the Compound was tested for minimum inhibitory concentration against Cryptococcus neoformans 58063; format: functional
Trichophyton rubrum [1] = assay: Antimicrobial activity of the Compound was tested for minimum inhibitory concentration against Trichophyton rubrum; format: functional
Aspergillus fumigatus = assay: Antimicrobial activity of the Compound was tested for minimum inhibitory concentration against Aspergillus fumigatus 10569; format: functional
Staphylococcus aureus [2] = assay: Antimicrobial activity of the Compound was tested for minimum inhibitory concentration against Staphylococcus aureus 209P; format: functional
Escherichia coli [3] = assay: Antimicrobial activity of the Compound was tested for minimum inhibitory concentration against Escherichia coli NIHJ; format: functional
Serratia marcescens = assay: Antimicrobial activity of the Compound was tested for minimum inhibitory concentration against Serratia marcescens 1184; format: functional
Proteus vulgaris = assay: Antimicrobial activity of the Compound was tested for minimum inhibitory concentration against Proteus vulgaris 1420; format: functional
[4] = system: Trichophyton interdigitale; assay: Antimicrobial activity of the Compound was tested for minimum inhibitory concentration against Trichophyton interdigitale; format: functional
Trichophyton benhamiae [5] = assay: Antimicrobial activity of the Compound was tested for minimum inhibitory concentration against Trichophyton mentagrophytes SC; format: functional, Arthroderma benhamiae
Staphylococcus aureus [6] = assay: Antimicrobial activity of the Compound was tested for minimum inhibitory concentration against Staphylococcus aureus 56R; format: functional
Enterobacter cloacae = assay: Antimicrobial activity of the Compound was tested for minimum inhibitory concentration against Enterobacter cloacae 963; format: functional
Nannizzia gypsea = assay: Antimicrobial activity of the Compound was tested for minimum inhibitory concentration against Microsporum gypseum 11268; format: functional
Mucor mucedo = assay: Antimicrobial activity of the Compound was tested for minimum inhibitory concentration against Mucor mucedo 14358; format: functional
Staphylococcus aureus [7] = assay: Antimicrobial activity of the Compound was tested for minimum inhibitory concentration against Staphylococcus aureus 535 (MRSA); format: functional
Candida albicans [8] = assay: Antimicrobial activity of the Compound was tested for minimum inhibitory concentration against Candida albicans SC; format: functional
Pseudomonas aeruginosa [9] = assay: Antimicrobial activity of the Compound was tested for minimum inhibitory concentration against Pseudomonas aeruginosa 1001; format: functional
Trichophyton rubrum [10] = assay: Antimicrobial activity of the Compound was tested for minimum inhibitory concentration against Trichophyton rubrum SC; format: functional
Klebsiella pneumoniae [11] = assay: Antimicrobial activity of the Compound was tested for minimum inhibitory concentration against Klebsiella pneumoniae 806; format: functional
Trichophyton benhamiae [12] = assay: Antimicrobial activity of the Compound was tested for minimum inhibitory concentration against Trichophyton mentagrophytes; format: functional, Arthroderma benhamiae
Klebsiella pneumoniae [13] = assay: Antimicrobial activity of the Compound was tested for minimum inhibitory concentration against Klebsiella pneumoniae 846(R); format: functional
Shigella flexneri [14] = assay: Antimicrobial activity of the Compound was tested for minimum inhibitory concentration against Shigella flexneri IID642; format: functional
Bacillus subtilis = assay: Antimicrobial activity of the Compound was tested for minimum inhibitory concentration against Bacillus subtilis ATCC 6633; format: functional
Salmonella enteritidis = assay: Antimicrobial activity of the Compound was tested for minimum inhibitory concentration against Salmonella enteritidis; format: functional, Salmonella enterica subsp. enterica serovar Enteritidis; conditions: Salmonella enterica
Escherichia coli [15] = assay: Antimicrobial activity of the Compound was tested for minimum inhibitory concentration against Escherichia coli 609; format: functional
Candida albicans [16] = assay: Antimicrobial activity of the Compound was tested for minimum inhibitory concentration against Candida albicans; format: functional
Pseudomonas aeruginosa [17] = assay: Antimicrobial activity of the Compound was tested for minimum inhibitory concentration against Pseudomonas aeruginosa N07; format: functional
Shigella flexneri [18] = assay: Antimicrobial activity of the Compound was tested for minimum inhibitory concentration against Shigella flexneriII D642; format: functional

Compound | MIC (Enterococcus faecalis) [µg/mL] | MIC (Trichophyton rubrum [1]) [µg/mL] | MIC (Staphylococcus aureus [2]) [µg/mL] | MIC (Escherichia coli [3]) [µg/mL] | MIC (Serratia marcescens) [µg/mL] | MIC (Proteus vulgaris) [µg/mL] | MIC [4] [µg/mL] | MIC (Staphylococcus aureus [6]) [µg/mL] | MIC (Enterobacter cloacae) [µg/mL] | MIC (Staphylococcus aureus [7]) [µg/mL] | MIC (Pseudomonas aeruginosa [9]) [µg/mL] | MIC (Klebsiella pneumoniae [11]) [µg/mL] | MIC (Trichophyton benhamiae [12]) [µg/mL] | MIC (Klebsiella pneumoniae [13]) [µg/mL] | MIC (Bacillus subtilis) [µg/mL] | MIC (Salmonella enteritidis) [µg/mL] | MIC (Escherichia coli [15]) [µg/mL] | MIC (Candida albicans [16]) [µg/mL] | MIC (Pseudomonas aeruginosa [17]) [µg/mL] | MIC (Shigella flexneri [18]) [µg/mL] | further results
C#CC#CC#C/C=C/C=C/C(C)O (configuration not stated) | 12.5 (≈ 73.4 µM) | 0.4 (≈ 2.35 µM) | 0.8 (≈ 4.7 µM) | 25 (≈ 147 µM) | > 50 | 12.5 (≈ 73.4 µM) | 0.8 (≈ 4.7 µM) | 0.8 (≈ 4.7 µM) | > 50 | 0.8 (≈ 4.7 µM) | > 50 | > 50 | 0.8 (≈ 4.7 µM) | 12.5 (≈ 73.4 µM) | 12.5 (≈ 73.4 µM) | 25 (≈ 147 µM) | 25 (≈ 147 µM) | 1.5 (≈ 8.81 µM) | > 50 |  | MIC (Cryptococcus neoformans): 1.5 µg/mL (≈ 8.81 µM); MIC (Aspergillus fumigatus): 6.2 µg/mL (≈ 36.4 µM); MIC (Trichophyton benhamiae [5]): 0.4 µg/mL (≈ 2.35 µM); MIC (Nannizzia gypsea): 0.8 µg/mL (≈ 4.7 µM); MIC (Mucor mucedo): 6.2 µg/mL (≈ 36.4 µM); MIC (Candida albicans [8]): 1.5 µg/mL (≈ 8.81 µM); MIC (Trichophyton rubrum [10]): 0.4 µg/mL (≈ 2.35 µM); MIC (Shigella flexneri [14]): 6.2 µg/mL (≈ 36.4 µM)
C#CC#CC#CC#CC(O)/C=C/C=C/C (configuration not stated) | 3.1 (≈ 16 µM) | < 0.1 | 0.2 (≈ 1.03 µM) | > 25 | > 25 | 0.8 (≈ 4.12 µM) | < 0.1 | 0.2 (≈ 1.03 µM) | > 25 | 0.2 (≈ 1.03 µM) | > 25 | > 25 | < 0.1 | > 25 | 0.4 (≈ 2.06 µM) | > 25 | > 25 | 3.1 (≈ 16 µM) | > 25 | 0.8 (≈ 4.12 µM) | MIC (Cryptococcus neoformans): 0.8 µg/mL (≈ 4.12 µM); MIC (Aspergillus fumigatus): 1.5 µg/mL (≈ 7.72 µM); MIC (Trichophyton benhamiae [5]): < 0.02 µg/mL; MIC (Nannizzia gypsea): 0.4 µg/mL (≈ 2.06 µM); MIC (Mucor mucedo): 0.2 µg/mL (≈ 1.03 µM); MIC (Candida albicans [8]): 3.1 µg/mL (≈ 16 µM); MIC (Trichophyton rubrum [10]): < 0.02 µg/mL
C#CC#CC#CC#C/C=C/C=C/[C@H](C)O | 6.2 (≈ 31.9 µM) | 0.2 (≈ 1.03 µM) | 0.2 (≈ 1.03 µM) | 1.5 (≈ 7.72 µM) | 1.5 (≈ 7.72 µM) | 1.5 (≈ 7.72 µM) | 0.4 (≈ 2.06 µM) | 0.2 (≈ 1.03 µM) | > 25 | 0.2 (≈ 1.03 µM) | > 25 | > 25 | 0.4 (≈ 2.06 µM) | 3.1 (≈ 16 µM) | 0.8 (≈ 4.12 µM) | 3.1 (≈ 16 µM) | 3.1 (≈ 16 µM) | 1.5 (≈ 7.72 µM) | > 25 | 0.8 (≈ 4.12 µM) | 
C#CC#CC#CC#C/C=C/C=C/[C@@H](C)O | 3.1 (≈ 16 µM) | 0.2 (≈ 1.03 µM) | 0.2 (≈ 1.03 µM) | 0.8 (≈ 4.12 µM) | 0.8 (≈ 4.12 µM) | 0.8 (≈ 4.12 µM) | 0.2 (≈ 1.03 µM) | 0.2 (≈ 1.03 µM) | > 12.5 | 0.1 (≈ 0.515 µM) | > 12.5 | 3.1 (≈ 16 µM) | 0.2 (≈ 1.03 µM) | 0.8 (≈ 4.12 µM) | 0.8 (≈ 4.12 µM) | 0.8 (≈ 4.12 µM) | 1.5 (≈ 7.72 µM) | 0.8 (≈ 4.12 µM) | > 12.5 | 0.4 (≈ 2.06 µM) | 
C#CC#CC#CC#CC1(O)CCCCC1 | 12.5 (≈ 63.7 µM) | 0.8 (≈ 4.08 µM) | 1.5 (≈ 7.64 µM) | 25 (≈ 127 µM) | > 25 | 3.1 (≈ 15.8 µM) | 1.5 (≈ 7.64 µM) | 1.5 (≈ 7.64 µM) | > 25 | 0.8 (≈ 4.08 µM) | > 25 | > 25 |  | 12.5 (≈ 63.7 µM) | 6.2 (≈ 31.6 µM) | 25 (≈ 127 µM) | > 25 | 6.2 (≈ 31.6 µM) | > 25 | 6.2 (≈ 31.6 µM) | 
C#CC#CC#CC#C/C=C/C=C/C(C)O (racemic) | 3.1 (≈ 16 µM) | 0.2 (≈ 1.03 µM) | 0.2 (≈ 1.03 µM) | 0.8 (≈ 4.12 µM) | 0.8 (≈ 4.12 µM) | 0.8 (≈ 4.12 µM) | 0.8 (≈ 4.12 µM) | 0.2 (≈ 1.03 µM) | > 25 | 0.2 (≈ 1.03 µM) | > 25 | 1.5 (≈ 7.72 µM) |  | 0.8 (≈ 4.12 µM) | 0.8 (≈ 4.12 µM) | 0.8 (≈ 4.12 µM) | 0.8 (≈ 4.12 µM) | 1.5 (≈ 7.72 µM) | > 25 | 0.8 (≈ 4.12 µM) | 
